Assay results: patent publication US20220339143A1, “TAK-925 FOR USE IN TREATING NARCOLEPSY” (Takeda Pharmaceutical Company Limited, priority 2019, published 2022)

System: patients with narcolepsy type 1 (NT1)
Assay: Subjective daytime sleepiness as assessed by Karolinska Sleepiness Scale (KSS), single dose (Cohorts 5, 6, 7)
Format: in vivo, human
Details: for KSS Change from Baseline, Mean / KSS Change from Baseline, Median / KSS Observed Value at Visit, Mean / KSS Observed Value at Visit, Median: Cmpd A 5 mg (N = 6)
Method: Daytime sleepiness as assessed by the Karolinska Sleepiness Scale (KSS).
Daytime sleepiness as assessed by KSS at predose and hourly until 11 hours after the start of infusion is presented in Table 13 as summary, in Table 14 as ANOVA and in Table 15 as ANOVA of change from baseline.

COC(=O)N1CCC[C@H](NS(C)(=O)=O)[C@@H]1CO[C@H]1CC[C@@H](c2ccccc2)CC1 [Compound A, methyl (2R,3S)-3-((methylsulfonyl)amino)-2-(((cis-4-phenylcyclohexyl)oxy)methyl)piperidine-1-carboxylate]
LS mean difference (95% CI) of KSS vs placebo during the 9 hour infusion, upper end of range (5 mg): −0.667 (−2.641, 1.307)
Change from Baseline in KSS, ANOVA Estimate (Cmpd A - Placebo) (5 mg, 1 hr): −2.833
KSS, ANOVA Estimate (Cmpd A - Placebo) (5 mg, 1 hr): −2.000
Change from Baseline in KSS, ANOVA Estimate (Cmpd A - Placebo) (5 mg, 2 hr): −4.333
KSS, ANOVA Estimate (Cmpd A - Placebo) (5 mg, 2 hr): −3.500
Change from Baseline in KSS, ANOVA Estimate (Cmpd A - Placebo) (5 mg, 3 hr): −2.167
KSS, ANOVA Estimate (Cmpd A - Placebo) (5 mg, 3 hr): −1.333
Change from Baseline in KSS, ANOVA Estimate (Cmpd A - Placebo) (5 mg, 4 hr): −4.167
KSS, ANOVA Estimate (Cmpd A - Placebo) (5 mg, 4 hr): −3.333
Change from Baseline in KSS, ANOVA Estimate (Cmpd A - Placebo) (5 mg, 5 hr): −3.500
KSS, ANOVA Estimate (Cmpd A - Placebo) (5 mg, 5 hr): −2.667
Change from Baseline in KSS, ANOVA Estimate (Cmpd A - Placebo) (5 mg, 6 hr): −4.333
KSS, ANOVA Estimate (Cmpd A - Placebo) (5 mg, 6 hr): −3.500
Change from Baseline in KSS, ANOVA Estimate (Cmpd A - Placebo) (5 mg, 7 hr): −4.333
KSS, ANOVA Estimate (Cmpd A - Placebo) (5 mg, 7 hr): −3.500
Change from Baseline in KSS, ANOVA Estimate (Cmpd A - Placebo) (5 mg, 8 hr): −3.500
KSS, ANOVA Estimate (Cmpd A - Placebo) (5 mg, 8 hr): −2.667
Change from Baseline in KSS, ANOVA Estimate (Cmpd A - Placebo) (5 mg, 9 hr): −1.500
KSS, ANOVA Estimate (Cmpd A - Placebo) (5 mg, 9 hr): −0.667
Change from Baseline in KSS, ANOVA Estimate (Cmpd A - Placebo) (5 mg, 10 hr): −2.000
KSS, ANOVA Estimate (Cmpd A - Placebo) (5 mg, 10 hr): −1.167
Change from Baseline in KSS, ANOVA Estimate (Cmpd A - Placebo) (5 mg, 11 hr): −0.167
KSS, ANOVA Estimate (Cmpd A - Placebo) (5 mg, 11 hr): 0.667
LS mean difference (95% CI) of KSS vs placebo during the 9 hour infusion, lower end of range (5 mg, at 2 hour, 6 hour and 7 hour after the start of infusion): −3.500
LS mean difference (95% CI) of KSS vs placebo during the 9 hour infusion, lower end of range (11.2 mg): −4.000 (−7.331, −0.669)
LS mean difference (95% CI) of KSS vs placebo during the 9 hour infusion, upper end of range (11.2 mg): −1.500 (−3.439, 0.439)
Change from Baseline in KSS, ANOVA Estimate (Cmpd A - Placebo) (11.2 mg, 1 hr): −4.500
KSS, ANOVA Estimate (Cmpd A - Placebo) (11.2 mg, 1 hr): −3.500
Change from Baseline in KSS, ANOVA Estimate (Cmpd A - Placebo) (11.2 mg, 2 hr): −4.500
KSS, ANOVA Estimate (Cmpd A - Placebo) (11.2 mg, 2 hr): −3.500
Change from Baseline in KSS, ANOVA Estimate (Cmpd A - Placebo) (11.2 mg, 3 hr): −2.500
KSS, ANOVA Estimate (Cmpd A - Placebo) (11.2 mg, 3 hr): −1.500
Change from Baseline in KSS, ANOVA Estimate (Cmpd A - Placebo) (11.2 mg, 4 hr): −5.000
KSS, ANOVA Estimate (Cmpd A - Placebo) (11.2 mg, 4 hr): −4.000
Change from Baseline in KSS, ANOVA Estimate (Cmpd A - Placebo) (11.2 mg, 5 hr): −4.000
KSS, ANOVA Estimate (Cmpd A - Placebo) (11.2 mg, 5 hr): −3.000
Change from Baseline in KSS, ANOVA Estimate (Cmpd A - Placebo) (11.2 mg, 6 hr): −4.000
KSS, ANOVA Estimate (Cmpd A - Placebo) (11.2 mg, 6 hr): −3.000
Change from Baseline in KSS, ANOVA Estimate (Cmpd A - Placebo) (11.2 mg, 7 hr): −4.500
KSS, ANOVA Estimate (Cmpd A - Placebo) (11.2 mg, 7 hr): −3.500
Change from Baseline in KSS, ANOVA Estimate (Cmpd A - Placebo) (11.2 mg, 8 hr): −3.500
KSS, ANOVA Estimate (Cmpd A - Placebo) (11.2 mg, 8 hr): −2.500
Change from Baseline in KSS, ANOVA Estimate (Cmpd A - Placebo) (11.2 mg, 9 hr): −3.000
KSS, ANOVA Estimate (Cmpd A - Placebo) (11.2 mg, 9 hr): −2.000
Change from Baseline in KSS, ANOVA Estimate (Cmpd A - Placebo) (11.2 mg, 10 hr): −2.500
KSS, ANOVA Estimate (Cmpd A - Placebo) (11.2 mg, 10 hr): −1.500
Change from Baseline in KSS, ANOVA Estimate (Cmpd A - Placebo) (11.2 mg, 11 hr): −2.000
KSS, ANOVA Estimate (Cmpd A - Placebo) (11.2 mg, 11 hr): −1.000
LS mean difference (95% CI) of KSS vs placebo during the 9 hour infusion, lower end of range (44.8 mg): −6.947 (−9.139, −4.756)
LS mean difference (95% CI) of KSS vs placebo during the 9 hour infusion, upper end of range (44.8 mg): −2.868 (−6.851, 1.114)
Change from Baseline in KSS, ANOVA Estimate (Cmpd A - Placebo) (44.8 mg, 1 hr): −5.237
KSS, ANOVA Estimate (Cmpd A - Placebo) (44.8 mg, 1 hr): −6.947
Change from Baseline in KSS, ANOVA Estimate (Cmpd A - Placebo) (44.8 mg, 2 hr): −3.053
KSS, ANOVA Estimate (Cmpd A - Placebo) (44.8 mg, 2 hr): −4.763
Change from Baseline in KSS, ANOVA Estimate (Cmpd A - Placebo) (44.8 mg, 3 hr): −1.553
KSS, ANOVA Estimate (Cmpd A - Placebo) (44.8 mg, 3 hr): −3.263
Change from Baseline in KSS, ANOVA Estimate (Cmpd A - Placebo) (44.8 mg, 4 hr): −2.184
KSS, ANOVA Estimate (Cmpd A - Placebo) (44.8 mg, 4 hr): −3.895
Change from Baseline in KSS, ANOVA Estimate (Cmpd A - Placebo) (44.8 mg, 5 hr): −2.026
KSS, ANOVA Estimate (Cmpd A - Placebo) (44.8 mg, 5 hr): −3.737
Change from Baseline in KSS, ANOVA Estimate (Cmpd A - Placebo) (44.8 mg, 6 hr): −1.158
KSS, ANOVA Estimate (Cmpd A - Placebo) (44.8 mg, 6 hr): −2.868
Change from Baseline in KSS, ANOVA Estimate (Cmpd A - Placebo) (44.8 mg, 7 hr): −3.737
KSS, ANOVA Estimate (Cmpd A - Placebo) (44.8 mg, 7 hr): −5.447
Change from Baseline in KSS, ANOVA Estimate (Cmpd A - Placebo) (44.8 mg, 8 hr): −2.921
KSS, ANOVA Estimate (Cmpd A - Placebo) (44.8 mg, 8 hr): −4.632
Change from Baseline in KSS, ANOVA Estimate (Cmpd A - Placebo) (44.8 mg, 9 hr): −2.868
KSS, ANOVA Estimate (Cmpd A - Placebo) (44.8 mg, 9 hr): −4.579
Change from Baseline in KSS, ANOVA Estimate (Cmpd A - Placebo) (44.8 mg, 10 hr): −0.632
KSS, ANOVA Estimate (Cmpd A - Placebo) (44.8 mg, 10 hr): −2.342
Change from Baseline in KSS, ANOVA Estimate (Cmpd A - Placebo) (44.8 mg, 11 hr): 0.974
KSS, ANOVA Estimate (Cmpd A - Placebo) (44.8 mg, 11 hr): −0.737
KSS Change from Baseline, Mean (1 hr after start of infusion): −2.3
KSS Change from Baseline, Median (1 hr after start of infusion): −2.5
KSS Observed Value at Visit, Mean (1 hr after start of infusion): 2.7
KSS Observed Value at Visit, Median (1 hr after start of infusion): 2.5
KSS Change from Baseline, Mean (2 hr after start of infusion): −2.8
KSS Change from Baseline, Median (2 hr after start of infusion): −2.5
KSS Observed Value at Visit, Mean (2 hr after start of infusion): 2.2
KSS Observed Value at Visit, Median (2 hr after start of infusion): 2.0
KSS Change from Baseline, Mean (3 hr after start of infusion): −3.2
KSS Change from Baseline, Median (3 hr after start of infusion): −3.5
KSS Observed Value at Visit, Mean (3 hr after start of infusion): 1.8
KSS Observed Value at Visit, Median (3 hr after start of infusion): 1.5
KSS Change from Baseline, Mean (4 hr after start of infusion): −2.8
KSS Change from Baseline, Median (4 hr after start of infusion): −2.5
KSS Observed Value at Visit, Mean (4 hr after start of infusion): 2.2
KSS Observed Value at Visit, Median (4 hr after start of infusion): 1.5
KSS Change from Baseline, Mean (5 hr after start of infusion): −3.0
KSS Change from Baseline, Median (5 hr after start of infusion): −3.0
KSS Observed Value at Visit, Mean (5 hr after start of infusion): 2.0
KSS Observed Value at Visit, Median (5 hr after start of infusion): 2.0
KSS Change from Baseline, Mean (6 hr after start of infusion): −3.2
KSS Change from Baseline, Median (6 hr after start of infusion): −3.5
KSS Observed Value at Visit, Mean (6 hr after start of infusion): 1.8
KSS Observed Value at Visit, Median (6 hr after start of infusion): 1.5
KSS Change from Baseline, Mean (7 hr after start of infusion): −2.5
KSS Change from Baseline, Median (7 hr after start of infusion): −2.5
KSS Observed Value at Visit, Mean (7 hr after start of infusion): 2.5
KSS Observed Value at Visit, Median (7 hr after start of infusion): 2.5
KSS Change from Baseline, Mean (8 hr after start of infusion): −2.7
KSS Change from Baseline, Median (8 hr after start of infusion): −3.0
KSS Observed Value at Visit, Mean (8 hr after start of infusion): 2.3
